According to patent US4745124A, “Orally effective anti-hypertensive agents” (priority 1983, dated 1988):
Where a name gives a salt, the structure may show the parent alone.

Assays:
[1] = test system: pressor effects of angiotensin I; assay: oral effectiveness: blood pressure response to angiotensin I in anesthetized rats; format: in vivo, rat
Protocol: Rats (210-290 g body weight) were fasted overnight and then anesthetized with intraperitoneal pentobarbital, 50-60 mg/kg. Tracheostomy was performed and the animals were ventilated mechanically. A cannula was inserted into a femoral vein for injection of angiotensin I or II, and a second cannula was inserted into a common carotid artery for direct measurement of arterial blood pressure. Heparin, 1,000 units, was injected via the femoral vein to prevent coagulation. Blood pressure was measured with a pressure transducer connected to a polygraph. The rats were injected with 80 ng of angiotensin I or angiotensin II in 20 μl of 0.9 g % NaCl; an amount of antiotensin I or II sufficient to raise mean arterial blood pressure by 27-40 mm Hg. After the responsiveness of a given rat to angiotensins I and II was established, compound (I), at 2 or 5 mg/kg (drug dissolved in 0.5 ml of H2 O plus 10 μl of 1N NaHCO3), was given via a stomach tube. At timed intervals, the effects of 80 ng of angiotensin I or angiotensin II on mean arterial blood pressure were tested.
Rats were prepared as described in Example 222. Compound (II) [N-benzoyl-L-phenylalanylthiopropanoyl)-L-proline] was given orally, via a stomach tube, at a dose of 12 mg/kg or 20 mg/kg. Compound (II) was dissolved in 0.5 ml of H2 O plus 10 μl of 1N NaHCO3. In all other respects, the experimental preparations were exactly as described in Example 222.
Rats (210-290 g body weight) were fasted overnight and then anesthetized with intraperitoneal pentobarbital, 50-60 mg/kg. Tracheostomy was performed and the animals were ventilated mechanically. A cannula was inserted into a femoral vein for injection of angiotensin I or II, and a second cannula was inserted into a common carotid artery for direct measurement of arterial blood pressure. Heparin, 1,000 units, was injected via the femoral vein to prevent coagulation. Blood pressure was measured with a pressure transducer connected to a polygraph. The rats were injected with 160 ng of angiotensin I or 80 ng of angiotensin II in 20 μl of 0.9 g % NaCl; an amount of angiotensin I or II sufficient to raise mean arterial blood pressure by 27-40 mm Hg. After the responsiveness of a given rat to angiotensins I and II was established, compound (B) at 10 mg (drug dissolved in 0.5 ml of H2 O plus 10 μl of 1N NaHCO3), was given via a stomach tube. At timed intervals, the effects of 160 ng of angiotensin I or 80 ng of angiotensin II on mean arterial blood pressure were tested. Results are shown below:
Rats (210-290 g body weight) were fasted overnight and then anesthetized with intraperitoneal pentobarbital, 50-60 mg/kg. Tracheostomy was performed and the animals were ventilated mechanically. A cannula was inserted into a femoral vein for injection of angiotensin I, and a second cannula was inserted into a common carotid artery for direct measurement of arterial blood pressure. Heparin, 1,000 units, was injected via the femoral vein to prevent coagulation. Blood pressure was measured with a pressure transducer connected to a polygraph. The rats were injected with 400 ng/kg of angiotensin I in 20 μl of 0.9 g % NaCl; an amount of angiotensin I sufficient to raise mean arterial blood pressure by 39 mm Hg. After the responsiveness of a given rat to angiotensin I was established, the named compound at 17 μmol/kg (drug dissolved in 0.15 ml of H2 O plus 10 μl of 1N NaHCO3), was given via a stomach tube. At timed intervals, the effects of 400 ng/kg of angiotensin I on mean arterial blood pressure were tested. Results are shown below:
Rats (190-290 g body weight) were fasted overnight and then anesthetized with intraperitoneal pentobarbital, 50-60 mg/kg. Tracheostomy was performed and the animals were ventilated mechanically. A cannula was inserted into a femoral vein for injection of angtiotensin I, and a second cannula was inserted into a common carotid artery for direct measurement of arterial blood pressure. […]

[2] = test system: pressor effects of angiotensin I; assay: intravenous effectiveness: blood pressure response to angiotensin I in anesthetized rats; format: in vivo, rat; details: for t1/2: recovery of one half of lost responsiveness to angiotensin I 400 ng/kg
Protocol: (§1) Anesthetized rats were prepared as described in Example 228. After the responsiveness of a given rat to angiotensin I was established, the named compound at 2 μmol/kg, in a volume of 15 μl of 0.01N sodium bicarbonate, was injected via a femoral vein. At timed intervals, the effects of angiotensin I, 400 ng/kg, on mean arterial blood pressure were tested. Results are shown below:
as §1, with “231.” for “228.”, “compound,” for “compound”
Anesthetized rats were prepared as described in Example 239. The animals were administered the named compound via a femoral vein in 15 μl of 0.01N sodium bicarbonate, after the control response to 400 ng/kg of angiotensin I was measured. […] The time required for recovery of one half of the lost responsiveness to angiotensin I, following injection of the named compound, was designated t1/2. […] Results are shown for two dose levels:
Anesthetized rats were prepared as described in Example 242. The named compound was administered intravenously via a femoral vein, at the stated dose, in 15 μl of 0.01N sodium bicarbonate. The response to intravenous administration was a rapid decrease in responsiveness to Angtiotensin I, 400 ng/kg, followed by a gradual recovery to the pretreatment level of responsiveness. The time required for recovery of one half the lost responsiveness to angiotensin I, following injection of the named compound, is designated t1/2. […] Results are shown for the three dose levels:
The intravenous effectiveness of the named compound was examined by following the procedure described in Example 244 except that 1 μmole/kg of the drug was given intravenously. The results are shown below:
The intravenous effectiveness of the named compound was examined by following the procedure described in Example 246 except that 1 μmole/Kg of the drug was given intravenously.

C[C@H](CSC(=O)[C@@H](N)CCC(=O)O)C(=O)N1CCC[C@H]1C(=O)O [N-alpha-[3-(L-alpha-glutamylthio)-2-D-methyl-propanoyl]-L-proline]
Blood Pressure Response to 400 ng/kg of Angiotensin I ([1]; oral 10 μmol/kg, 9 min, Ex. 244): 66 % of Control
Blood Pressure Response to 400 ng/kg of Angiotensin I ([1]; oral 10 μmol/kg, 18 min, Ex. 244): 39 % of Control
Blood Pressure Response to 400 ng/kg of Angiotensin I ([1]; oral 10 μmol/kg, 26 min, Ex. 244): 39 % of Control
Blood Pressure Response to 400 ng/kg of Angiotensin I ([1]; oral 10 μmol/kg, 33 min, Ex. 244): 26 % of Control
Blood Pressure Response to 400 ng/kg of Angiotensin I ([1]; oral 10 μmol/kg, 39 min, Ex. 244): 18 % of Control
Blood Pressure Response to 400 ng/kg of Angiotensin I ([1]; oral 10 μmol/kg, 45 min, Ex. 244): 18 % of Control
Blood Pressure Response to 400 ng/kg of Angiotensin I ([1]; oral 10 μmol/kg, 53 min, Ex. 244): 13 % of Control
Blood Pressure Response to 400 ng/kg of Angiotensin I ([1]; oral 10 μmol/kg, 64 min, Ex. 244): 13 % of Control
Blood Pressure Response to 400 ng/kg of Angiotensin I ([1]; oral 10 μmol/kg, 77 min, Ex. 244): 26 % of Control
Blood Pressure Response to 400 ng/kg of Angiotensin I ([1]; oral 10 μmol/kg, 89 min, Ex. 244): 26 % of Control
Blood Pressure Response to 400 ng/kg of Angiotensin I ([1]; oral 10 μmol/kg, 111 min, Ex. 244): 24 % of Control
Blood Pressure Response to 400 ng/kg of Angiotensin I ([1]; oral 10 μmol/kg, 125 min, Ex. 244): 26 % of Control
Blood Pressure Response to 400 ng/kg of Angiotensin I ([2]; i.v. 1 μmole/kg, 0.5 min, Ex. 245): 13 % of Control
Blood Pressure Response to 400 ng/kg of Angiotensin I ([2]; i.v. 1 μmole/kg, 3 min, Ex. 245): 13 % of Control
Blood Pressure Response to 400 ng/kg of Angiotensin I ([2]; i.v. 1 μmole/kg, 7 min, Ex. 245): 13 % of Control
Blood Pressure Response to 400 ng/kg of Angiotensin I ([2]; i.v. 1 μmole/kg, 11 min, Ex. 245): 21 % of Control
Blood Pressure Response to 400 ng/kg of Angiotensin I ([2]; i.v. 1 μmole/kg, 22 min, Ex. 245): 21 % of Control
Blood Pressure Response to 400 ng/kg of Angiotensin I ([2]; i.v. 1 μmole/kg, 28 min, Ex. 245): 18 % of Control
Blood Pressure Response to 400 ng/kg of Angiotensin I ([2]; i.v. 1 μmole/kg, 37 min, Ex. 245): 29 % of Control
Blood Pressure Response to 400 ng/kg of Angiotensin I ([2]; i.v. 1 μmole/kg, 47 min, Ex. 245): 37 % of Control
Blood Pressure Response to 400 ng/kg of Angiotensin I ([2]; i.v. 1 μmole/kg, 56 min, Ex. 245): 39 % of Control
Blood Pressure Response to 400 ng/kg of Angiotensin I ([2]; i.v. 1 μmole/kg, 82 min, Ex. 245): 53 % of Control
Blood Pressure Response to 400 ng/kg of Angiotensin I ([2]; i.v. 1 μmole/kg, 92 min, Ex. 245): 71 % of Control

C[C@H](CSC(=O)[C@H](Cc1c[nH]c2ccccc12)NC(=O)c1ccccc1)C(=O)N1CCC[C@H]1C(=O)O [N-alpha-[3-(N-alpha-benzoyl-L-tryptophylthio)-2-D-methylpropanoyl]-1-proline]
Blood Pressure Response to 400 ng/kg of Angiotensin I ([1]; oral 20 μmol/kg, 3 min, Ex. 242): 92 % of Control
Blood Pressure Response to 400 ng/kg of Angiotensin I ([1]; oral 20 μmol/kg, 7 min, Ex. 242): 64 % of Control
Blood Pressure Response to 400 ng/kg of Angiotensin I ([1]; oral 20 μmol/kg, 21 min, Ex. 242): 32 % of Control
Blood Pressure Response to 400 ng/kg of Angiotensin I ([1]; oral 20 μmol/kg, 26 min, Ex. 242): 40 % of Control
Blood Pressure Response to 400 ng/kg of Angiotensin I ([1]; oral 20 μmol/kg, 32 min, Ex. 242): 40 % of Control
Blood Pressure Response to 400 ng/kg of Angiotensin I ([1]; oral 20 μmol/kg, 38 min, Ex. 242): 20 % of Control
Blood Pressure Response to 400 ng/kg of Angiotensin I ([1]; oral 20 μmol/kg, 50 min, Ex. 242): 8 % of Control
Blood Pressure Response to 400 ng/kg of Angiotensin I ([1]; oral 20 μmol/kg, 56 min, Ex. 242): 8 % of Control
Blood Pressure Response to 400 ng/kg of Angiotensin I ([1]; oral 20 μmol/kg, 70 min, Ex. 242): 8 % of Control
Blood Pressure Response to 400 ng/kg of Angiotensin I ([1]; oral 20 μmol/kg, 79 min, Ex. 242): 20 % of Control
Blood Pressure Response to 400 ng/kg of Angiotensin I ([1]; oral 20 μmol/kg, 87 min, Ex. 242): 12 % of Control
Blood Pressure Response to 400 ng/kg of Angiotensin I ([1]; oral 20 μmol/kg, 104 min, Ex. 242): 12 % of Control
Blood Pressure Response to 400 ng/kg of Angiotensin I ([1]; oral 20 μmol/kg, 114 min, Ex. 242): 20 % of Control
Blood Pressure Response to 400 ng/kg of Angiotensin I ([1]; oral 20 μmol/kg, 124 min, Ex. 242): 40 % of Control
Blood Pressure Response to 400 ng/kg of Angiotensin I ([1]; oral 20 μmol/kg, 136 min, Ex. 242): 40 % of Control
Blood Pressure Response to 400 ng/kg of Angiotensin I ([1]; oral 20 μmol/kg, 148 min, Ex. 242): 36 % of Control
Blood Pressure Response to 400 ng/kg of Angiotensin I ([1]; oral 20 μmol/kg, 173 min, Ex. 242): 48 % of Control
Blood Pressure Response to 400 ng/kg of Angiotensin I ([1]; oral 20 μmol/kg, 186 min, Ex. 242): 48 % of Control
Blood Pressure Response to 400 ng/kg of Angiotensin I ([1]; oral 20 μmol/kg, 199 min, Ex. 242): 68 % of Control
Blood Pressure Response to 400 ng/kg of Angiotensin I ([1]; oral 20 μmol/kg, 212 min, Ex. 242): 64 % of Control
Blood Pressure Response to 400 ng/kg of Angiotensin I ([1]; oral 20 μmol/kg, 226 min, Ex. 242): 64 % of Control
Blood Pressure Response to 400 ng/kg of Angiotensin I ([1]; oral 20 μmol/kg, 242 min, Ex. 242): 80 % of Control
Blood Pressure Response to 400 ng/kg of Angiotensin I ([1]; oral 20 μmol/kg, 260 min, Ex. 242): 80 % of Control
Blood Pressure Response to 400 ng/kg of Angiotensin I ([1]; oral 20 μmol/kg, 291 min, Ex. 242): 84 % of Control
t1/2 ([2]; i.v. 0.193 μmol/kg): 11 min
t1/2 ([2]; i.v. 0.58 μmol/kg): 11 min
t1/2 ([2]; i.v. 1.93 μmol/kg): 15 min

C[C@H](CSC(=O)C(Cc1ccccc1)NC(=O)c1ccccc1)C(=O)N1CCC[C@H]1C(=O)O (stereo partly drawn) [potassium salt of N-alpha[3-(N-alpha-benzoyl-D,L-phenylalanylthio)-2-D-methylpropanoyl]-L-proline]
Blood Pressure Response to 400 ng/kg of Angiotensin I ([2]; i.v. 1 μmole/Kg, 5 min, Ex. 247): 46 % of Control
Blood Pressure Response to 400 ng/kg of Angiotensin I ([2]; i.v. 1 μmole/Kg, 10 min, Ex. 247): 37 % of Control
Blood Pressure Response to 400 ng/kg of Angiotensin I ([2]; i.v. 1 μmole/Kg, 15 min, Ex. 247): 41 % of Control
Blood Pressure Response to 400 ng/kg of Angiotensin I ([2]; i.v. 1 μmole/Kg, 20 min, Ex. 247): 37 % of Control
Blood Pressure Response to 400 ng/kg of Angiotensin I ([2]; i.v. 1 μmole/Kg, 30 min, Ex. 247): 44 % of Control
Blood Pressure Response to 400 ng/kg of Angiotensin I ([2]; i.v. 1 μmole/Kg, 40 min, Ex. 247): 50 % of Control
Blood Pressure Response to 400 ng/kg of Angiotensin I ([2]; i.v. 1 μmole/Kg, 50 min, Ex. 247): 39 % of Control
Blood Pressure Response to 400 ng/kg of Angiotensin I ([2]; i.v. 1 μmole/Kg, 60 min, Ex. 247): 46 % of Control
Blood Pressure Response to 400 ng/kg of Angiotensin I ([2]; i.v. 1 μmole/Kg, 90 min, Ex. 247): 52 % of Control
Blood Pressure Response to 400 ng/kg of Angiotensin I ([2]; i.v. 1 μmole/Kg, 120 min, Ex. 247): 59 % of Control
